The source of these data is patent US9120749B2, “Quinoline derivatives and MELK inhibitors containing the same” (ONCOTHERAPY SCIENCE, INC., priority 2010, dated 2015).

Counter-ions that a name gives are not always drawn. Like-named read-outs stand apart in the source and are kept apart here.

As a reminder, the IC50 is the concentration needed to halve the response being measured.

The test system of one assay is 22Rv1 cells. Description: Cell-based assay: anti-proliferative activity, Cell Counting Kit-8, 72 hours (22Rv1). For orientation: Tetrazolium dyes change colour on reduction, which living cells bring about.
For a further assay, the target named is MELK (Homo sapiens, UniProt Q14680). Description: Kinase assay: MELK activity, phosphorylation of FITC-labeled histone H3 peptide measured by IMAP fluorescence polarization. It is filed as biochemical. Particulars: read-out: IC50 (μM) (kinase assay). In outline: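 FP readout: FITC-histone H3 peptide phosphorylation, read 0.5 h (RT) after stopping with 3x volume of IMAP progressive binding solution. Final DMSO 1%.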
Sequence of MELK (Q14680 whole entry, looked up): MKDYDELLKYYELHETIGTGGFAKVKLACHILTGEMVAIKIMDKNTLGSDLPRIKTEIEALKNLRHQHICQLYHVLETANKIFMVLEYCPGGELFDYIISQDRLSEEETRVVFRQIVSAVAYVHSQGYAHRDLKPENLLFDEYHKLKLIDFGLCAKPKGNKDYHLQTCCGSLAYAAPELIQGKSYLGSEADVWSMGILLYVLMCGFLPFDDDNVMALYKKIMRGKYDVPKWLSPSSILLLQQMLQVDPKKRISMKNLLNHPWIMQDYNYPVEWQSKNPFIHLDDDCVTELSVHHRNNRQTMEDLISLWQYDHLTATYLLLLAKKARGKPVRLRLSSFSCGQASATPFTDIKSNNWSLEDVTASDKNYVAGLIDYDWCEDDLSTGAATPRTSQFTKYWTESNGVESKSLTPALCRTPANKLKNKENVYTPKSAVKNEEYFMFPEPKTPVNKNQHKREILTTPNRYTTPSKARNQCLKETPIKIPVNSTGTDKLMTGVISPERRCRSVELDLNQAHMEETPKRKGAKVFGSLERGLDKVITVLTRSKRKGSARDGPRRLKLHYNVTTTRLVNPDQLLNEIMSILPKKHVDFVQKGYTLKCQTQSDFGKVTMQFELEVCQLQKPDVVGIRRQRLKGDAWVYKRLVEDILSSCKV
For orientation: Polarisation of emitted light reports the rotation of a fluorescent probe.

Another assay concerns A549 cells. Put plainly: Cell-based assay: anti-proliferative activity, Cell Counting Kit-8, 72 hours (A549). Particulars: 72 hours. In outline:
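A549 cells were seeded in 96-well plates and exposed to candidate inhibitors for 72 hours. Cell growth was then measured with Cell Counting Kit-8, and IC50 values were calculated from the resulting growth data.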

A further assay deals with DU4475 cells. Description: Cell-based assay: anti-proliferative activity, Cell Counting Kit-8, 72 hours (DU4475).
A further assay relates to T47D cells. Description: Cell-based assay: anti-proliferative activity, Cell Counting Kit-8, 72 hours (T47D). In outline:
(§1)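 Cellular growth is read by CCK-8 colorimetric kit 72 h after inhibitor addition to seeded cells, and IC50 values are derived from the resulting data; MELK protein levels in these lines are checked beforehand by immunoblotting whole crude lysate.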

The next assay concerns HT-1197 cells. Put plainly: Cell-based assay: anti-proliferative activity, Cell Counting Kit-8, 72 hours (HT-1197, negative control without MELK expression). Particulars: HT1197 cells (negative control, no MELK expression), 72 hours. The procedure, abridged:
as §1

[1] abbreviates: MELK kinase assay, IMAP fluorescence polarization, 50 micro-M ATP.

For `COc1cc(-c2ccc3ncc(C(C)=O)c(N[C@H]4CC[C@H](CN5CCC(N)C5)CC4)c3c2)cc(Cl)c1O` (stereo partly drawn) [Example 780, 1-(4-(1R,4R)-4-((3-aminopyrrolidin-1-yl)methyl)cyclohexylamino)-6-(3-chloro-4-hydroxy-5-methoxyphenyl)quinolin-3-yl)ethanone hydrochloride], the IC50 with 22Rv1 cells (Homo sapiens, 22Rv1, 72 h) worked out at 0.67 µM; on MELK, 0.002 µM; in the assay with A549 cells (Homo sapiens, A549, 72 h), 0.62 µM; with DU4475 cells (Homo sapiens, DU-4475, 72 h), 1.5 µM; in the assay on T47D cells (Homo sapiens, T47D, 72 h), 0.41 µM; in the assay with HT-1197 cells (Homo sapiens, HT1197, 72 h), 3.2 µM.
Turning to `COc1cc(-c2ccc3ncc(C(=O)C4CC4)c(NC4CCN(C5CCNC5)CC4)c3c2)cc(Cl)c1O` (stereo not drawn) [Example 764, (6-(3-chloro-4-hydroxy-5-methoxyphenyl)-4-(1-(pyrrolidin-3-yl)piperidin-4-ylamino)quinolin-3-yl)(cyclopropyl)methanone], the IC50 in the assay on 22Rv1 cells (Homo sapiens, 22Rv1, 72 h) is 0.95 µM; on MELK, 0.0029 µM; with A549 cells (Homo sapiens, A549, 72 h), 1.3 µM; with DU4475 cells (Homo sapiens, DU-4475, 72 h), 0.18 µM; in the assay with T47D cells (Homo sapiens, T47D, 72 h), 0.18 µM; in the assay with HT-1197 cells (Homo sapiens, HT1197, 72 h) it was 5.3 µM.
As for `CN(C)CCN1CCC(Nc2c(C(=O)C3CC3)cnc3ccc(-c4cc(F)c(O)c(Cl)c4)cc23)CC1` [Example 822, (6-(3-chloro-5-fluoro-4-hydroxyphenyl)-4-(1-(2-(dimethylamino)ethyl)piperidin-4-ylamino)quinolin-3-yl)(cyclopropyl)methanone], the IC50 was found to be 0.43 µM with 22Rv1 cells (Homo sapiens, 22Rv1, 72 h); 0.0031 µM at MELK (setting [1]); 0.48 µM with A549 cells (Homo sapiens, A549, 72 h); 0.16 µM in the assay on DU4475 cells (Homo sapiens, DU-4475, 72 h); 0.29 µM in the assay on T47D cells (Homo sapiens, T47D, 72 h); 2.5 µM with HT-1197 cells (Homo sapiens, HT1197, 72 h).
Take `CC(=O)c1c(C)nc2ccc(-c3cc(Cl)c(O)c(Cl)c3)cc2c1Nc1ccc(N2CCN(C)CC2)nc1` [Example 838, 1-(6-(3,5-dichloro-4-hydroxyphenyl)-2-methyl-4-(6-(4-methylpiperazin-1-yl)pyridin-3-ylamino)quinolin-3-yl)ethanone hydrochloride]: the IC50 in the assay on 22Rv1 cells (Homo sapiens, 22Rv1, 72 h) came out at 7.2 µM; on MELK (setting [1]), 0.097 µM; with A549 cells (Homo sapiens, A549, 72 h), 11 µM; with DU4475 cells (Homo sapiens, DU-4475, 72 h), 14 µM; in the assay with T47D cells (Homo sapiens, T47D, 72 h), 17 µM; in the assay on HT-1197 cells (Homo sapiens, HT1197, 72 h), 25 µM.
In the case of `CC(=O)c1cnc2ccc(-c3cc(Cl)c(O)c(Cl)c3)cc2c1N[C@H]1CC[C@H](N(C)C)CC1` [Example 766, 1-(6-(3,5-dichloro-4-hydroxyphenyl)-4-(trans-4-(dimethylamino)cyclohexylamino)quinolin-3-yl)ethanone hydrochloride], the IC50 came to 0.1 µM in the assay on 22Rv1 cells (hydrochloride); 0.0017 µM on MELK (hydrochloride); 0.14 µM in the assay on A549 cells (hydrochloride); 0.06 µM in the assay with DU4475 cells (hydrochloride); 0.074 µM in the assay on T47D cells (72 hours, hydrochloride); 1 µM in the assay on HT-1197 cells (hydrochloride).
Turning to `CC(=O)c1cnc2ccc(-c3cc(F)c(O)c(Cl)c3)cc2c1N[C@H]1CC[C@H](CN2CCC(N)C2)CC1` (stereo partly drawn) [Example 786, 1-(4-(1R,4R)-4-((3-aminopyrrolidin-1-yl)methyl)cyclohexylamino)-6-(3-chloro-5-fluoro-4-hydroxyphenyl)quinolin-3-yl)ethanone hydrochloride], the IC50 came out at 0.17 µM in the assay with 22Rv1 cells (Homo sapiens, 22Rv1, 72 h); 0.0031 µM at MELK; 0.96 µM in the assay on A549 cells (Homo sapiens, A549, 72 h); 0.23 µM with DU4475 cells (Homo sapiens, DU-4475, 72 h); 0.07 µM with T47D cells (Homo sapiens, T47D, 72 h); 10 µM in the assay on HT-1197 cells (Homo sapiens, HT1197, 72 h).
`CCN(C)C[C@H]1CC[C@H](Nc2c(C(C)=O)cnc3ccc(-c4cc(F)c(O)c(Cl)c4)cc23)CC1` [Example 845]: the IC50 in the assay with 22Rv1 cells (Homo sapiens, 22Rv1, 72 h) came out at 0.11 µM; on MELK (setting [1]), 0.00204 µM; with A549 cells (Homo sapiens, A549, 72 h) it was 0.14 µM; in the assay with DU4475 cells (Homo sapiens, DU-4475, 72 h), 0.069 µM; with T47D cells (Homo sapiens, T47D, 72 h), 0.063 µM; in the assay with HT-1197 cells (Homo sapiens, HT1197, 72 h), 1.4 µM.
As for `CC(=O)c1cnc2ccc(-c3cc(Cl)c(O)c(Cl)c3)cc2c1N[C@H]1CC[C@H](N(C)C)CC1` [Example 765, 1-{6-(3,5-Dichloro-4-hydroxyphenyl)-4-[trans-4-(dimethylamino)cyclohexylamino]quinolin-3-yl}ethanone], the IC50 in the assay on 22Rv1 cells (Homo sapiens, 22Rv1, 72 h) was 0.14 µM; at MELK it was 0.0022 µM; in the assay with A549 cells (Homo sapiens, A549, 72 h) it was 0.17 µM; in the assay with DU4475 cells (Homo sapiens, DU-4475, 72 h) it was 0.047 µM; in the assay with T47D cells (Homo sapiens, T47D, 72 h), 0.081 µM; in the assay with HT-1197 cells (Homo sapiens, HT1197, 72 h) it was 1.7 µM.
